PubChem BioAssay (NCI)
Where “and” joins values, the source holds several entries; their conditions need not be identical. Equal values may be shown once.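 A five-concentration, 48-hour dose response in 96-well plates underlies each endpoint, interpolated linearly between surrounding concentrations. At the GI50, growth is halved. TGI: concentration producing complete growth inhibition.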

What was measured:
Assay in all cases: inhibition of tumour cell growth, NCI panel, 48 h
CAKI-1 renal = system: CAKI-1 renal
MOLT-4 leukemia = system: MOLT-4 leukemia
SF-268 CNS = system: SF-268 CNS
M14 melanoma = system: M14 melanoma
ACHN renal = system: ACHN renal
HCT-15 colon = system: HCT-15 colon
786-0 renal = system: 786-0 renal
SW-620 colon = system: SW-620 colon
SK-MEL-2 melanoma = system: SK-MEL-2 melanoma
PC-3 prostate = system: PC-3 prostate

Structure (SMILES)	GI50 (CAKI-1 renal)	TGI (CAKI-1 renal)	GI50 (MOLT-4 leukemia)	TGI (MOLT-4 leukemia)	GI50 (SF-268 CNS)	TGI (SF-268 CNS)	GI50 (M14 melanoma)	TGI (M14 melanoma)	GI50 (ACHN renal)	TGI (ACHN renal)	GI50 (HCT-15 colon)	TGI (HCT-15 colon)	GI50 (786-0 renal)	TGI (786-0 renal)	GI50 (SW-620 colon)	TGI (SW-620 colon)	GI50 (SK-MEL-2 melanoma)	TGI (SK-MEL-2 melanoma)	GI50 (PC-3 prostate)	TGI (PC-3 prostate)
N#CC(C#N)N=Nc1ccc(Br)cc1	2.05 µM	12.1 µM	2.72 µM	> 66.2 µM	13.1 µM	> 100 µM	3.33 µM	16.8 µM	1.99 µM	7.89 µM	3.22 µM	15.9 µM	3.79 µM	14.1 µM	3.01 µM	15.8 µM	8.97 µM	36.1 µM	2.42 µM	17.7 µM
Cc1[nH]c2ccccc2c1-c1cc(-c2cc(-c3c(C)[nH]c4ccccc34)nc(N)n2)nc(N)n1	–	> 100 µM	–	> 100 µM	–	> 100 µM	–	> 100 µM	–	> 100 µM	–	> 100 µM	–	> 100 µM	–	> 100 µM	–	> 100 µM	–	> 100 µM
O=[N+]([O-])/C=C/c1cc2ccccc2[nH]1	–	33.7 µM	–	44.2 µM	–	36.4 µM	–	28.5 µM	–	31.1 µM	–	53.6 µM	–	27.9 µM	–	34.5 µM	–	34.6 µM	–	31.7 µM
COc1cc(Nc2ncc(F)c(Nc3ccc4c(n3)NC(=O)C(C)(C)O4)n2)cc(OC)c1OC	0.618 µM	> 10 µM	3.38 µM and 6.7 µM	> 100 µM	3.6 µM	> 10 µM	> 100 µM	> 100 µM	0.791 µM and 1.36 µM	> 100 µM	4.75 µM	> 10 µM	1.03 µM and 1.27 µM	> 100 µM	> 10 µM	> 10 µM	> 100 µM	> 100 µM	> 10 µM	> 10 µM
COC1=CC23CCCN2CCc2cc4c(cc2C3C1O)OCO4 (centres undefined)	–	92 µM	–	> 100 µM	–	> 100 µM	–	> 100 µM	–	60.1 µM	–	> 100 µM	–	> 100 µM	–	> 100 µM	–	> 100 µM	–	> 100 µM
O=Cc1ccc(-c2ccc(-c3nc4ccccc4o3)cc2)s1	25.2 µM	61.1 µM	21.6 µM	> 100 µM	28.4 µM	81.5 µM	26.6 µM	70 µM	31.5 µM	> 100 µM	34.2 µM	> 100 µM	31.9 µM	> 100 µM	71.2 µM	> 100 µM	63.4 µM	> 100 µM	> 100 µM	> 100 µM
O=C(/C=N/O)Nc1cc(Cl)c(Cl)cc1Cl	–	79.8 µM	–	47.9 µM	–	> 100 µM	–	> 100 µM	–	> 100 µM	–	> 100 µM	–	> 100 µM	–	> 100 µM	–	54.2 µM	–	> 100 µM
CCCCCCCCCc1cc[n+](CC(=O)c2ccc([N+](=O)[O-])cc2)cc1	3.19 µM	12 µM	2.1 µM	5.27 µM	1.34 µM	2.81 µM	0.553 µM	2.14 µM	1.42 µM	2.82 µM	1.19 µM	2.57 µM	1.75 µM	3.25 µM	0.403 µM	1.63 µM	0.565 µM	2.06 µM	0.552 µM	1.88 µM
CC(C)CC(=O)Nc1n[nH]c2c1CN(C(=O)C1CCN(C)CC1)C2(C)C	4.79 µM	> 10 µM	0.917 µM	> 10 µM	1.9 µM	> 10 µM	2.24 µM	> 10 µM	> 10 µM	> 10 µM	> 10 µM	> 10 µM	2.07 µM	> 10 µM	0.895 µM	> 10 µM	0.524 µM	2.8 µM	1.33 µM	> 10 µM
COc1cc2c(cc1OC)C(OC)N(C)c1c-2ccc2cc3c(cc12)OCO3 (centres undefined)	–	33 µM	–	16.1 µM	–	> 20.9 µM	–	25.6 µM	–	> 75 µM	–	> 75 µM	–	5.47 µM	–	8.35 µM	–	5.02 µM	–	> 75 µM
Nc1ccccc1NC(=O)c1ccc(CCCC(=O)Nc2ccc(C3CC3N)cc2)cc1 (centres undefined)	2.46 µM	14.4 µM	1.87 µM	> 100 µM	1.83 µM	23 µM	2.01 µM	15.4 µM	4.3 µM	33.5 µM	18.8 µM	> 100 µM	3.5 µM	39.3 µM	1.08 µM	29.5 µM	1.55 µM	7.26 µM	2.32 µM	95.3 µM
COC1=CC(=O)C(OC)=C(OC)C1=O	16.1 µM	30 µM	2.07 µM	5.5 µM	17.1 µM	30.9 µM	15.6 µM	29.7 µM	12.8 µM	25.3 µM	16.2 µM	33.7 µM	18.3 µM	32.5 µM	18 µM	35.1 µM	9.98 µM	33.1 µM	14.9 µM	32.8 µM
CC#C/C(=N\OC[C@H]1COCCN1)c1ccc2ncnc(Nc3ccc(OCc4cccc(F)c4)c(Cl)c3)c2c1	0.183 µM	10.4 µM	1.8 µM	3.91 µM	–	–	1.76 µM	3.59 µM	–	–	1.41 µM	2.81 µM	1.52 µM	3.07 µM	–	–	1.97 µM	3.61 µM	1.81 µM	3.98 µM
C[C@@H](CN1CC(=O)NC(=O)C1)N1CC(=O)NC(=O)C1	80.7 µM	772 µM	–	821 µM	–	1160 µM	–	1160 µM	–	753 µM	–	823 µM	–	1120 µM	–	1030 µM	–	754 µM	–	1450 µM
O=C(O)c1cc2ccccc2oc1=O	–	> 100 µM	–	> 100 µM	–	> 100 µM	–	> 100 µM	–	> 100 µM	–	> 100 µM	–	> 100 µM	–	> 100 µM	–	> 100 µM	–	> 100 µM
OC(COc1ccc(F)cc1)Cn1cnc2c(Cl)ncnc21 (centres undefined)	19.9 µM	37.6 µM	32.5 µM	> 100 µM	97.4 µM	> 100 µM	–	–	62.4 µM	> 100 µM	32.4 µM	> 100 µM	> 100 µM	> 100 µM	72.9 µM	> 100 µM	> 100 µM	> 100 µM	> 100 µM	> 100 µM
CN1CCN(c2ccc(Nc3nc(N)c(C(=O)c4ccc5c(c4)OCCO5)s3)cc2)CC1	1.18 µM	7 µM	1.89 µM	10 µM	3.84 µM	10.5 µM	3.99 µM	> 18.1 µM	1.85 µM	6.57 µM	4.08 µM	> 25 µM	3.44 µM	8.23 µM	3.63 µM	> 17.7 µM	4.77 µM	15.2 µM	1.77 µM	8.47 µM
COC(=O)c1c(O)c([N+](=O)[O-])cc2c1c1c(n2Cc2ccccc2)C(=O)c2ccccc2C1=O	38.2 µM	> 100 µM	–	–	8.48 µM	76.9 µM	10.6 µM	24.1 µM	29.8 µM	> 100 µM	34.6 µM	> 100 µM	15.7 µM	59.6 µM	2.97 µM	11.4 µM	27.2 µM	> 100 µM	15.4 µM	53.9 µM
Nc1ncnc2c1c(-c1cccc(OCc3ccccc3)c1)cn2C1CC(CN2CCC2)C1 (centres undefined)	2.56 µM and 2.44 µM	11.4 µM and > 10 µM	2.82 µM and 2.56 µM	8.59 µM and > 10 µM	2.24 µM and 3.68 µM	6.54 µM and > 10 µM	1.59 µM and 1.65 µM	3.28 µM and 3.55 µM	3.87 µM and 7.43 µM	15.3 µM and > 10 µM	1.93 µM and 2.39 µM	12.6 µM and > 10 µM	1.92 µM and 2.14 µM	3.98 µM and 4.83 µM	1.29 µM and 1.56 µM	6.47 µM and > 10 µM	1.58 µM and 2.21 µM	3.36 µM and 6.1 µM	2.94 µM and 5.42 µM	13.9 µM and > 10 µM
Cc1cc(O)c(C2=NN(c3ccc(S(N)(=O)=O)cc3)C(c3ccc(N(C)C)cc3)C2)c(C)c1Cl (centres undefined)	23.3 µM	> 100 µM	12.7 µM	43.2 µM	18.7 µM	37.2 µM	14 µM	29.4 µM	14.9 µM	30.6 µM	14.2 µM	32 µM	16.8 µM	32.2 µM	18.4 µM	37.8 µM	21.4 µM	43.6 µM	9.21 µM	23.9 µM
CC(=O)O[C@@H]1[C@@H](O)C2=C3[C@]4(C)[C@@H]1C(C)(C)C(=O)C[C@@H]4[C@]3(O)[C@H](OC(C)=O)[C@@]1(C[C@@H]1C)C2=O	–	33.2 µM	–	72.4 µM	–	81.7 µM	–	91.9 µM	–	43.4 µM	–	31.5 µM	–	32.4 µM	–	42.8 µM	–	68.5 µM	–	48.9 µM
Nc1nc2cc3ccc(C4CC(O)C(CO)O4)cc3cc2c(=O)[nH]1 (centres undefined)	> 100 µM	> 100 µM	> 100 µM	> 100 µM	> 100 µM	> 100 µM	> 100 µM	> 100 µM	–	–	> 100 µM	> 100 µM	> 100 µM	> 100 µM	> 100 µM	> 100 µM	0.0927 µM	> 100 µM	> 100 µM	> 100 µM
